Assay results published in patent US7649113B2, “Mono, di and tri cyclic compounds useful for lowering IgE concentrations” (The Research Foundation of State University of New York, priority 2003, dated 2010).

Assays:
IgE production [1] = experiment: Suppression of human IgE production in vitro; assay type: cell-based
[2] = system: PBMC (peripheral blood mononuclear cells); settings: patient PBMC; dose dependent manner; cited from earlier work
[3] = system: normal mouse spleen cells; settings: cited from earlier work
dogs = settings: cited from earlier work
mice = settings: cited from earlier work
IgE production [4] = experiment: Suppression of human IgE production in vivo
IgE production [5] = experiment: Suppression of murine IgE production in vivo
[6] = system: allergic steroid dependent asthmatic patients; settings: oral administration; cited from earlier work
[7] = system: human whole blood cultures; settings: physiological doses; cited from earlier work
[8] = system: inducible nitric oxide synthase (iNOS); settings: murine macrophages; cited from earlier work
[9] = system: rheumatoid arthritis (RA) patients; settings: cited from earlier work

Compound: C[C@H]1c2cccc(O)c2C(=O)C2=C(O)[C@]3(O)C(=O)C(C(N)=O)=C(O)[C@@H](N(C)C)[C@@H]3[C@@H](O)[C@@H]21 [doxycycline]
- human IgE production (IgE production [1]): suppresses
- anti-CD40 rhIL-4 mediated in vitro induction of IgE responses [2]: suppress
- PHA/IL-4 mediated IgE response [3]: suppresses
- severity of osteoarthritis (OA) (dogs): reduced
- ability to mount delayed-type hypersensitivity responses (mice): inhibit

Compound: CN(C)c1ccc(O)c2c1C[C@H]1C[C@H]3[C@H](N(C)C)C(=O)C(C(N)=O)=C(O)[C@@]3(O)C(=O)C1=C2O [minocycline]
- human IgE production (IgE production [4]): suppresses
- murine IgE production (IgE production [5]): suppresses
- human IgE production (IgE production [1]): suppresses
- anti-CD40 rhIL-4 mediated in vitro induction of IgE responses [2]: suppress
- oral corticosteroid requirements [6]: decreased
- symptoms (A.M. and P.M.) [6]: improved their symptoms
- severity of osteoarthritis (OA) (dogs): reduced
- mitotic responses to phytohemagglutinin [7]: inhibits
- inducible nitric oxide synthase (iNOS) expression [8]: inhibits
- therapy for early RA ([9]; RA patients): appears to be an effective therapy
- side effects ([9]; mild and moderate RA patients): no side effects
